Read-outs that look alike come from different tables or passages of the source.
Molecular target: T1, PD-1/PD-L1 (Homo sapiens, UniProt Q9NZQ7)
T1 construct: made in house; host or cells: HEK293T
Assay: PD-1/PD-L1 Homogenous Time-Resolved Fluorescence (HTRF) binding assay
Details: PD-L1-His 10 nM, PD-1-Ig 20 nM, read-out: Range or IC50
Procedure, shortened: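 Detection by europium cryptate anti-Ig plus APC anti-His (1 nM and 20 nM final) with HTRF signal. Buffer was dPBS, 0.1% BSA, 0.05% Tween-20.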

T1 sequence (Q9NZQ7 with tags, fused parts or gaps): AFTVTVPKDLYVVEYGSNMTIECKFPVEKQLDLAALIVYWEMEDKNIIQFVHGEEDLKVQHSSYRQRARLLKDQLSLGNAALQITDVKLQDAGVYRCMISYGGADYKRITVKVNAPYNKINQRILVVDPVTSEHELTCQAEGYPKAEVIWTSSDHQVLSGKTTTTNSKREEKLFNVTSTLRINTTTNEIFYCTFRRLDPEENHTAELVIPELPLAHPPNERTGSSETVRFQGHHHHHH

Structure (SMILES) | IC50 (value given as range class) [nM] | IC50 (numeric IC50) [nM]
Cc1c(COc2cc(OCc3cncc(C#N)c3)c(CNC(CO)CO)cc2Cl)cccc1-c1cccc(OCCCN2CCC(F)(F)C2)c1C [Example 4116, 5-((4-chloro-5-((3′-(3-(3,3-difluoropyrrolidin-1-yl)propoxy)-2,2′-dimethyl-[1,1′-biphenyl]-3-yl)methoxy)-2-(((1,3-dihydroxypropan-2-yl)amino)methyl)phenoxy)methyl)nicotinonitrile] | 0.21 to 10 | 
Cc1c(COc2cc(OCc3cncc(C#N)c3)c(CNC(C)(CO)CO)cc2Cl)cccc1-c1cccc(OCCCN2CCC(F)(F)C2)c1C [Example 4117, 5-((4-chloro-5-((3′-(3-(3,3-difluoropyrrolidin-1-yl)propoxy)-2,2′-dimethyl-[1,1′-biphenyl]-3-yl)methoxy)-2-(((1,3-dihydroxy-2-methylpropan-2-yl)amino)methyl)phenoxy)methyl)nicotinonitrile] | 0.21 to 10 | 
Cc1c(COc2cc(OCc3cncc(C#N)c3)c(CNC(CO)(CO)CO)cc2Cl)cccc1-c1cccc(OCCCN2CCC(F)(F)C2)c1C [Example 4118, 5-((4-chloro-5-((3′-(3-(3,3-difluoropyrrolidin-1-yl)propoxy)-2,2′-dimethyl-[1,1′-biphenyl]-3-yl)methoxy)-2-(((1,3-dihydroxy-2-(hydroxymethyl)propan-2-yl)amino)methyl)phenoxy)methyl)nicotinonitrile] | 0.21 to 10 | 
Cc1c(COc2cc(OCc3cncc(C#N)c3)c(CN[C@@](C)(CO)C(=O)O)cc2Cl)cccc1-c1cccc(OCCCN2CCC(F)(F)C2)c1C [Example 4119, (S)-2-((5-chloro-2-((5-cyanopyridin-3-yl)methoxy)-4-((3′-(3-(3,3-difluoropyrrolidin-1-yl)propoxy)-2,2′-dimethyl-[1,1′-biphenyl]-3-yl)methoxy)benzyl)amino)-3-hydroxy-2-methylpropanoic Acid] | 0.21 to 10 | 
Cc1c(COc2cc(OCc3cncc(C#N)c3)c(CN(C)C(CO)CO)cc2Cl)cccc1-c1cccc(OCCCN2CCC(F)(F)C2)c1C [Example 4120, 5-((4-chloro-5-((3′-(3-(3,3-difluoropyrrolidin-1-yl)propoxy)-2,2′-dimethyl-[1,1′-biphenyl]-3-yl)methoxy)-2-(((1,3-dihydroxypropan-2-yl)(methyl)amino)methyl)phenoxy)methyl)nicotinonitrile] | 0.21 to 10 | 
Cc1c(COc2cc(OCc3cncc(C#N)c3)c(CN(C)C(CO)(CO)CO)cc2Cl)cccc1-c1cccc(OCCCN2CCC(F)(F)C2)c1C [Example 4121, 5-((4-chloro-5-((3′-(3-(3,3-difluoropyrrolidin-1-yl)propoxy)-2,2′-dimethyl-[1,1′-biphenyl]-3-yl)methoxy)-2-(((1,3-dihydroxy-2-(hydroxymethyl)propan-2-yl)(methyl)amino)methyl)phenoxy)methyl)nicotinonitrile] |  | 0.5
Cc1c(COCCN2CC[C@@H](O)C2)cccc1-c1cccc(COc2cc(OCc3cncc(C#N)c3)c(CNC(CO)CO)cc2Cl)c1C [Example 4122, (R)-5-((4-chloro-2-(((1,3-dihydroxypropan-2-yl)amino)methyl)-5-((3′-((2-(3-hydroxypyrrolidin-1-yl)ethoxy)methyl)-2,2′-dimethyl-[1,1′-biphenyl]-3-yl)methoxy)phenoxy)methyl)nicotinonitrile] | 0.21 to 10 | 
Cc1c(COCCN2CC[C@@H](O)C2)cccc1-c1cccc(COc2cc(OCc3cncc(C#N)c3)c(CN[C@@](C)(CO)C(=O)O)cc2Cl)c1C [Example 4123, (S)-2-((5-chloro-2-((5-cyanopyridin-3-yl)methoxy)-4-((3′-((2-((R)-3-hydroxypyrrolidin-1-yl)ethoxy)methyl)-2,2′-dimethyl-[1,1′-biphenyl]-3-yl)methoxy)benzyl)amino)-3-hydroxy-2-methylpropanoic Acid] | 0.21 to 10 | 
Cc1c(COCCN2CC[C@@H](O)C2)cccc1-c1cccc(COc2cc(OCc3cncc(C#N)c3)c(CNC3(C(=O)O)CC3)cc2Cl)c1C [Example 4124, (R)-1-((5-chloro-2-((5-cyanopyridin-3-yl)methoxy)-4-((3′-((2-(3-hydroxypyrrolidin-1-yl)ethoxy)methyl)-2,2′-dimethyl-[1,1′-biphenyl]-3-yl)methoxy)benzyl)amino)cyclopropane-1-carboxylic Acid] | 0.21 to 10 | 
Cc1c(COCCN2CC[C@@H](O)C2)cccc1-c1cccc(COc2cc(OCc3cncc(C#N)c3)c(CNC(CO)(CO)CO)cc2Cl)c1C [Example 4125, (R)-5-((4-chloro-2-(((1,3-dihydroxy-2-(hydroxymethyl)propan-2-yl)amino)methyl)-5-((3′-((2-(3-hydroxypyrrolidin-1-yl)ethoxy)methyl)-2,2′-dimethyl-[1,1′-biphenyl]-3-yl)methoxy)phenoxy)methyl)nicotinonitrile] | 0.21 to 10 | 
Cc1c(COCCN2CC[C@@H](O)C2)cccc1-c1cccc(COc2cc(OCc3cncc(C#N)c3)c(CN3CCCC[C@H]3C(=O)O)cc2Cl)c1C [Example 4126, (S)-1-(5-chloro-2-((5-cyanopyridin-3-yl)methoxy)-4-((3′-((2-((R)-3-hydroxypyrrolidin-1-yl)ethoxy)methyl)-2,2′-dimethyl-[1,1′-biphenyl]-3-yl)methoxy)benzyl)piperidine-2-carboxylic Acid] | 0.21 to 10 | 
Cc1c(COCCN2CC[C@@H](O)C2)cccc1-c1cccc(COc2cc(OCc3cncc(C#N)c3)c(CN(C)C(CO)CO)cc2Cl)c1C [Example 4127, (R)-5-((4-chloro-2-(((1,3-dihydroxypropan-2-yl)(methyl)amino)methyl)-5-((3′-((2-(3-hydroxypyrrolidin-1-yl)ethoxy)methyl)-2,2′-dimethyl-[1,1′-biphenyl]-3-yl)methoxy)phenoxy)methyl)nicotinonitrile] | 0.21 to 10 | 
Cc1c(COCCN2CC[C@@H](O)C2)cccc1-c1cccc(COc2cc(OCc3cncc(C#N)c3)c(CN(C)C(C)(CO)CO)cc2Cl)c1C [Example 4128, (R)-5-((4-chloro-2-(((1,3-dihydroxy-2-methylpropan-2-yl)(methyl)amino)methyl)-5-((3′-((2-(3-hydroxypyrrolidin-1-yl)ethoxy)methyl)-2,2′-dimethyl-[1,1′-biphenyl]-3-yl)methoxy)phenoxy)methyl)nicotinonitrile] | 0.21 to 10 | 
Cc1c(COCCN2CC[C@@H](O)C2)cccc1-c1cccc(COc2cc(OCc3cncc(C#N)c3)c(CN(C)C3(C(=O)O)CC3)cc2Cl)c1C [Example 4129, (R)-1-((5-chloro-2-((5-cyanopyridin-3-yl)methoxy)-4-((3′-((2-(3-hydroxypyrrolidin-1-yl)ethoxy)methyl)-2,2′-dimethyl-[1,1′-biphenyl]-3-yl)methoxy)benzyl)(methyl)amino)cyclopropane-1-carboxylic Acid] | 0.21 to 10 | 
Cc1c(COCCN2CC[C@@H](O)C2)cccc1-c1cccc(COc2cc(OCc3cncc(C#N)c3)c(CN(C)[C@@H](CO)C(=O)O)cc2Cl)c1C [Example 4130, N-(5-chloro-2-((5-cyanopyridin-3-yl)methoxy)-4-((3′-((2-((R)-3-hydroxypyrrolidin-1-yl)ethoxy)methyl)-2,2′-dimethyl-[1,1′-biphenyl]-3-yl)methoxy)benzyl)-N-methyl-L-serine] | 0.21 to 10 | 
Cc1c(COCCN2CC[C@@H](O)C2)cccc1-c1cccc(COc2cc(OCc3cncc(C#N)c3)c(CNC(C)(CO)CO)cc2Cl)c1C [Example 4131, (R)-5-((4-chloro-2-(((1,3-dihydroxy-2-methylpropan-2-yl)amino)methyl)-5-((3′-((2-(3-hydroxypyrrolidin-1-yl)ethoxy)methyl)-2,2′-dimethyl-[1,1′-biphenyl]-3-yl)methoxy)phenoxy)methyl)nicotinonitrile] | 0.21 to 10 | 
Cc1c(COc2cc(OCc3cncc(C#N)c3)c(CN(C)[C@@H](C)C(=O)O)cc2Cl)cccc1-c1cccc(OCCCN2CC[C@@H](O)C2)c1C [Example 4132, N-(5-chloro-2-((5-cyanopyridin-3-yl)methoxy)-4-((3′-(3 ((R)-3-hydroxypyrrolidin-1-yl)propoxy)-2,2′-dimethyl-[1,1′-biphenyl]-3-yl)methoxy)benzyl)-N-methyl-L-alanine] | 0.21 to 10 | 
CC[C@@H](C(=O)O)N(C)Cc1cc(Cl)c(OCc2cccc(-c3cccc(OCCCN4CC[C@@H](O)C4)c3C)c2C)cc1OCc1cncc(C#N)c1 [Example 4133, (S)-2-((5-chloro-2-((5-cyanopyridin-3-yl)methoxy)-4-((3′-(3-((R)-3-hydroxypyrrolidin-1-yl)propoxy)-2,2′-dimethyl-[1,1′-biphenyl]-3-yl)methoxy)benzyl)(methyl)amino)butanoic Acid] | 0.21 to 10 | 
Cc1c(COc2cc(OCc3cncc(C#N)c3)c(CN(C)C3(C(=O)O)CC3)cc2Cl)cccc1-c1cccc(OCCCN2CC[C@@H](O)C2)c1C [Example 4134, (R)-1-((5-chloro-2-((5-cyanopyridin-3-yl)methoxy)-4-((3′-(3-(3-hydroxypyrrolidin-1-yl)propoxy)-2,2′-dimethyl-[1,1′-biphenyl]-3-yl)methoxy)benzyl)(methyl)amino)cyclopropane-1-carboxylic Acid] | 0.21 to 10 | 
Cc1c(COc2cc(OCc3cncc(C#N)c3)c(CN(C)[C@@H](CCO)C(=O)O)cc2Cl)cccc1-c1cccc(OCCCN2CC[C@@H](O)C2)c1C [Example 4135, N-(5-chloro-2-((5-cyanopyridin-3-yl)methoxy)-4-((3′-(3-((R)-3-hydroxypyrrolidin-1-yl)propoxy)-2,2′-dimethyl-[1,1′-biphenyl]-3-yl)methoxy)benzyl)-N-methyl-L-homoserine] | 0.21 to 10 | 
Cc1c(COc2cc(OCc3cncc(C#N)c3)c(CN(C)[C@@H](CO)C(=O)O)cc2Cl)cccc1-c1cccc(OCCCN2CC[C@@H](O)C2)c1C [Example 4136, N-(5-chloro-2-((5-cyanopyridin-3-yl)methoxy)-4-((3′-(3-((R)-3-hydroxypyrrolidin-1-yl)propoxy)-2,2′-dimethyl-[1,1′-biphenyl]-3-yl)methoxy)benzyl)-N-methyl-L-serine] | 0.21 to 10 | 
